Data taken from patent US11731964B2, “Benzamide antibacterial agents” (Purdue Research Foundation, priority 2018, dated 2023).
In brackets after ≈: the same amount, converted by molar mass. Where two headings read alike, the source gives them in different places.

Assays:
Format in all cases: cell-based
[1] = system: L. monocytogenes ATCC 19115; experiment: MIC, broth microdilution; settings: Listeria monocytogenes, ATCC19115; L. monocytogenes ATCC 19115; read-out: MIC
Procedure, shortened: (§1)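 Broth microdilution in cation-adjusted Mueller Hinton Broth, Brain Heart Infusion (E. faecium) or Tryptic Soy Broth depending on strain, at 37° C for at least 20 hours. MIC was the lowest concentration without visible growth. For MBC, clear wells were spotted onto Tryptic Soy Agar and read after at least 18 hours at 37° C.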

S. aureus ATCC 25923 = experiment: MIC, broth microdilution; settings: Staphylococcus aureus, ATCC25923; S. aureus ATCC 25923; read-out: MIC
Procedure, shortened: as §1

[2] = system: VRE (E. faecalis) ATCC 51575; experiment: MIC, broth microdilution; settings: VRE (E. faecalis) ATCC 51575; read-out: MIC
Procedure, shortened: as §1

MRSA ATCC 33592 = experiment: MIC, broth microdilution; settings: Staphylococcus aureus; MRSA ATCC 33592; read-out: MIC
Procedure, shortened: as §1

[3] = system: Pseudomonas aeruginosa ATCC 15442; experiment: MIC against Gram-negative pathogens
Protocol: (§2) Bacteria were cultured in cation-adjusted Mueller Hinton Broth (for strains in Tables 1 and 4) or Brain Heart Infusion broth (for Enterococcus faecium) or Tryptic Soy Broth (all other bacteria) in a 96-well plate at 37° C. for at least 20 hours. The MIC was classified as the lowest concentration where no visual growth of bacteria was observed. The minimum bactericidal concentration (MBC) was tested by spotting 4 μL from wells with no growth onto Tryptic Soy Agar (TSA) plates. Plates were incubated at 37° C. for at least 18 hours before recording the MBC.

Escherichia coli BW25113 = experiment: MIC against Gram-negative pathogens; settings: Escherichia coli BW25113 (wild-type); read-out: MIC
Protocol: as §2

[4] = system: Acinetobacter baumannii ATCC 19606; experiment: MIC against Gram-negative pathogens
Protocol: as §2

[5] = system: Klebsiella pneumoniae BAA-1706; experiment: MIC against Gram-negative pathogens
Protocol: as §2

Structure (SMILES): CC1CC(C)CN(S(=O)(=O)c2ccc(C(=O)Nc3nnc(-c4cccs4)o3)cc2)C1 (centres unmarked) [Compound F6]
- MIC [1]: 4 µg/mL (≈ 8.96 µM)
- MIC (S. aureus ATCC 25923): 2 µg/mL (≈ 4.48 µM)
- MIC [2]: 4 µg/mL (≈ 8.96 µM)
- MIC (MRSA ATCC 33592): 2 µg/mL (≈ 4.48 µM)
- MIC [3]: not active
- MIC ([3]; ATCC15442, read-out: MIC): > 128 µg/mL
- MIC (Escherichia coli BW25113): > 128 µg/mL
- MIC [4]: not active
- MIC ([4]; ATCC19606, read-out: MIC): 128 µg/mL (≈ 287 µM)
- MIC [5]: not active
- MIC ([5]; BAA1706, read-out: MIC): > 128 µg/mL
